Measured values published in US20260216138A1, “IDENTIFICATION OF OTUD7B INHIBITOR 7BI AND ITS APPLICATION IN REDUCING GROWTH OF NSCLC AND LEUKEMIA CELLS” (The University of North Carolina at Chapel Hill, priority 2023, published 2026).

Assays:
Assay type in all cases: cell-based
[1] = tested on: THP1 cells; assay: Leukemia cell proliferation, THP1; conditions: 72 hrs
Method: (§1) 2,000 cells from indicated NSLC cell lines were seeded into each well of 96-well plates. Cell viability was measured 3 days post-treatment using MTT assays following manufacturer's instruction. For cell viability assays with inhibitor treatment, 2,000 cells from indicated NSLC and HEK293 cell lines were seeded in 96-well plate. Inhibitor was added the next day at indicated concentration and cell viability was measured after 3-day treatment. For cell proliferation assays in THP1, K562 and HL60 cell lines, 1×10^6 cells from each indicated cell line were seeded in 12.5 cm2 cell culture flask and cells were counted by hemocytometer under microscope at indicated time to monitor cell proliferation. To test inhibitor effects on THP1, K562 and HL60 cell growth, 2×10^5 cells were seeded in 12.5 cm2 cell culture flask. Inhibitor was added the next day at indicated concentrations and cell number was counted after 3 days treatment. Three independent experiments were performed to generate error bars.

[2] = tested on: H1299 cells; assay: Colony formation / growth of H1299 cells; conditions: treated once for 10 days
Method: 500 cells from OTUD7B depleted A549 cells were seeded into each well of 6-well plates and cultured in the 37° C. incubator with 5% CO2 for 10-15 days until formation of visible colonies. Triplicates were performed. To test the effect of a given inhibitor on colony formation ability, 800 cells from A549, H520 and H1299 cell lines were seeded into each well of 6-well plates, respectively. Each inhibitor was added at indicated concentration the next day. Colonies were counted after 10 days of treatment. The colony staining method was as described. […] Colony numbers were counted manually. […]
as §1, with “For cell viability assays with inhibitor treatment, 2,000 cells from indicated NSLC and HEK293 cell lines were seeded in 96-well plate.” left out, “To test inhibitor effects on THP1, K562 and HL60 cell growth, 2×10^5 cells were seeded in 12.5 cm2 cell culture flask.” left out, “Three independent experiments were performed to generate error bars.” left out

[3] = tested on: HL60 cells; assay: Leukemia cell proliferation, HL60; conditions: 72 hrs
Method: as §1

[4] = tested on: GβL binding with mTORC2 components (Sin1, Rictor, mTOR); assay: GβL binding with mTORC2 components (HA-IP, HEK293 cells); conditions: indicated doses of 7Bi, 16 hrs
Method: (§2) Cells were harvested and lysed in EBC buffer (50 mM Tris pH 7.5, 120 mM NaCl, 0.5% NP-40) supplemented with protease inhibitor cocktail (EDTA-free, mini-tablet) (Bimake) and phosphatase inhibitor cocktail (Bimake) by rotating in the cold room for 10 min followed by high-speed centrifugation at 4° C. The protein concentrations in supernatants of whole cell lysates were measured by NanoDrop OneC using the Bio-Rad Bradford protein assay reagent. Equal amounts of whole cell lysates were resolved on SDS-PAGE and immunoblotted with indicated antibodies. For immunoprecipitation analysis, 1 mg of total cell lysate was incubated with the indicated beads for 3-4 hr at 4° C. The recovered immuno-complexes were washed thoroughly three times with NETN buffer (20 mM Tris, pH 8.0, 100 mM NaCl, 1 mM EDTA and 0.5% NP-40) before being resuspended in SDS sample buffer and resolved on SDS-PAGE and immunoblotted with indicated antibodies.

[5] = tested on: K562 cells; assay: Leukemia cell proliferation, K562; conditions: 72 hrs
Method: as §1

[6] = tested on: Akt-pS473; assay: Akt-pS473 western blotting in NSCLC cells (A549, H358, H520, H1299)
Method: as §2
Next, we used two approaches to search for possible OTUD7B inhibitors by monitoring Akt-pS473 changes including Akt-pS473 ELISA and western blotting in A549 cells treated with each of these 59 small molecules for 16 hrs at a concentration of 10 uM (FIG. 1A). In Akt-pS473 ELISA assays using Torin 2 (a pan-mTOR inhibitor) as a positive control and DMSO as a negative control (FIG. 1E), we found 15 compounds with an inhibitory ability above 30% (FIG. 1F). […]

IC50 ([6]; NSCLC cells, read-out: IC50 values to inhibit Akt-pS473 signals): 1 to 10 µM
SMILES: Cc1cc(NC(=O)c2cnn(C)c2C(=O)Nc2cc(C)nn2C2CCCC2)n(C2CCCC2)n1 [7Bi]
cell proliferation [1]: reduced proliferation
cell growth [2]: reduced growth
cell proliferation [3]: reduced proliferation
GβL binding with mTORC2 components (Sin1, Rictor, mTOR) [4]: attenuated GβL binding with mTORC2 components
cell proliferation [5]: reduced proliferation
suppressing Akt-pS473 signal in at least 3 out of 4 NSCLC lines tested ([6]; A549, H358, H520, H1299, 10 uM for 16 hrs, dose- and time-dependent): showed effects in suppressing Akt-pS473 signal
